Assay results taken from patent publication US20110104080A1, “Oral Compositions for Treatment of Dry Mouth” (priority 2009, published 2011).

Assay: Water gain (moisture uptake) of treated cotton swatches, no rinse / with rinse
Assay type: physicochemical
Conditions: dried
Protocol: Table 2: Water gain (mg) for cotton swatches with different treatments. […] No-rinse samples were treated, dried then incubated to monitor moisture uptake. With rinse samples were treated, rinsed with water, dried then incubated to monitor moisture uptake. Control represents swatches treated with water only.
For table 2, the test method is as follows: For “no rinse”: 1×1 cm cotton swatches (triplicates) are placed into a weigh boat where each is labeled according to treatment type and number. Initial weights are recorded for each sample. 500 uL of polymer solution is applied to each cotton swatch sample then reweighed as wet weight. Samples are allowed to dry overnight at room temperature conditions. Sample weights are recorded in the following morning as “no rinse”. Samples are then placed on a tray in the incubator at 37° C., 3.3% CO2, and approximately 90% humidity (the metal tray at the bottom of the incubator has plenty of distilled water in the pan to ensure constant humidity). Opening and closing the incubator door frequently causes parameters to shift so minimizing this will ensure proper control over parameter. Samples are incubated for 8 hours then reweighed. The weights represent the moisture uptake ability for the treated samples. […] Samples are weighed and placed in the incubator the following morning similar to above described procedure and weights are recorded as “with rinse”.

- Water gain (No Rinse, incubated 8 hours at 37° C., approximately 90% humidity): 393.3 mg
- Water gain (With Rinse, rinsed with water, then incubated): 126.9 mg
SMILES: OCC(O)CO [40% glycerin, glycerin]
